The source of these data is patent US20260049071A1, “PROTEIN TYROSINE KINASE INHIBITOR AND MEDICAL USE THEREOF” (BEYANG THERAPEUTICS CO., LTD., priority 2022, published 2026).

One series addresses KDR (VEGFR2) (Homo sapiens (Human), UniProt P35968). Nature of the series: Kinase inhibition, Mobility Shift Assay (VEGFR2). It counts as biochemical. Put shortly:
(§1)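 Mobility shift assay: each kinase preincubated 10 min at room temperature with compound, then reacted with FAM-labeled peptide, MgCl2 and ATP at 28° C. for varying times. Substrate-to-product conversion read on Caliper; % inhibition normalised to no-kinase and DMSO controls, and IC50 fitted.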

The target in the next series is EGFR (Homo sapiens (Human), UniProt P00533). Nature of the series: Kinase inhibition, Mobility Shift Assay (EGFR). It counts as biochemical. In a few lines: as §1
Chain of EGFR (P00533 25-1210): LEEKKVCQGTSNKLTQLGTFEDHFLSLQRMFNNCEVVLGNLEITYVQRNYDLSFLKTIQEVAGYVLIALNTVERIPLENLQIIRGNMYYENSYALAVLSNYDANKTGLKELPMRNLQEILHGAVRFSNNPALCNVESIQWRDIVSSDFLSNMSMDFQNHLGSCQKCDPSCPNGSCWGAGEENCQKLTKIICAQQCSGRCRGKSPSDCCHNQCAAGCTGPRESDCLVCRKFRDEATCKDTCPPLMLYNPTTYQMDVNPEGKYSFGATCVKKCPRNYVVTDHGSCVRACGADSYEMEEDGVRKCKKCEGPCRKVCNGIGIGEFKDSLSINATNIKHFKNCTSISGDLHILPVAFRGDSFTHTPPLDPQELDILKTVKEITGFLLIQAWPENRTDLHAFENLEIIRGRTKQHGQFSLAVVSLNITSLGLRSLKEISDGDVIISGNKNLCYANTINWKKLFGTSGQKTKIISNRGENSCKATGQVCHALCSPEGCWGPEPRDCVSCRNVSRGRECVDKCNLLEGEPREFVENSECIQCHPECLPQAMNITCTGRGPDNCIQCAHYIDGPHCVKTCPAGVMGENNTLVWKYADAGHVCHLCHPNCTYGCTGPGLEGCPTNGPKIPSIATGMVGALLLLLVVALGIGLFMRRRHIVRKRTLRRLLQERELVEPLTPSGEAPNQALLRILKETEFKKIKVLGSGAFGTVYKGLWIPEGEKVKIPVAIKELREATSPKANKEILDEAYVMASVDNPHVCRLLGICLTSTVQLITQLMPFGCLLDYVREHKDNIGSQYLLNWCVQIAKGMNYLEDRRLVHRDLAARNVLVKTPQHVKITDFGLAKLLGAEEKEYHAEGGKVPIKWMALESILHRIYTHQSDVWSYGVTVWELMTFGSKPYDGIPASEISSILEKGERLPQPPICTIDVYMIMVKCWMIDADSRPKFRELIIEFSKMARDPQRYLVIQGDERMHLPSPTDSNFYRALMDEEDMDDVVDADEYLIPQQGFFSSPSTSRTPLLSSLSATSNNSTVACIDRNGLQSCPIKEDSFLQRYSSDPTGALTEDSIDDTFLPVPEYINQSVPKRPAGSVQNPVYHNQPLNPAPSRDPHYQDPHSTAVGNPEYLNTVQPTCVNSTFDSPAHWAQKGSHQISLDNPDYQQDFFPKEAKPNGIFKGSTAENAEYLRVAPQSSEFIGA
A further series addresses FLT1 (VEGFR1) (Homo sapiens (Human), UniProt P17948). Nature of the series: Kinase inhibition, Mobility Shift Assay (VEGFR1). Type of series: biochemical. Put shortly: as §1
The target in a further series is FLT4 (VEGFR3) (Homo sapiens (Human), UniProt P35916). In words: Kinase inhibition, Mobility Shift Assay (VEGFR3). It counts as biochemical. Put shortly: as §1
Chain of FLT4 (VEGFR3) (P35916 25-1363): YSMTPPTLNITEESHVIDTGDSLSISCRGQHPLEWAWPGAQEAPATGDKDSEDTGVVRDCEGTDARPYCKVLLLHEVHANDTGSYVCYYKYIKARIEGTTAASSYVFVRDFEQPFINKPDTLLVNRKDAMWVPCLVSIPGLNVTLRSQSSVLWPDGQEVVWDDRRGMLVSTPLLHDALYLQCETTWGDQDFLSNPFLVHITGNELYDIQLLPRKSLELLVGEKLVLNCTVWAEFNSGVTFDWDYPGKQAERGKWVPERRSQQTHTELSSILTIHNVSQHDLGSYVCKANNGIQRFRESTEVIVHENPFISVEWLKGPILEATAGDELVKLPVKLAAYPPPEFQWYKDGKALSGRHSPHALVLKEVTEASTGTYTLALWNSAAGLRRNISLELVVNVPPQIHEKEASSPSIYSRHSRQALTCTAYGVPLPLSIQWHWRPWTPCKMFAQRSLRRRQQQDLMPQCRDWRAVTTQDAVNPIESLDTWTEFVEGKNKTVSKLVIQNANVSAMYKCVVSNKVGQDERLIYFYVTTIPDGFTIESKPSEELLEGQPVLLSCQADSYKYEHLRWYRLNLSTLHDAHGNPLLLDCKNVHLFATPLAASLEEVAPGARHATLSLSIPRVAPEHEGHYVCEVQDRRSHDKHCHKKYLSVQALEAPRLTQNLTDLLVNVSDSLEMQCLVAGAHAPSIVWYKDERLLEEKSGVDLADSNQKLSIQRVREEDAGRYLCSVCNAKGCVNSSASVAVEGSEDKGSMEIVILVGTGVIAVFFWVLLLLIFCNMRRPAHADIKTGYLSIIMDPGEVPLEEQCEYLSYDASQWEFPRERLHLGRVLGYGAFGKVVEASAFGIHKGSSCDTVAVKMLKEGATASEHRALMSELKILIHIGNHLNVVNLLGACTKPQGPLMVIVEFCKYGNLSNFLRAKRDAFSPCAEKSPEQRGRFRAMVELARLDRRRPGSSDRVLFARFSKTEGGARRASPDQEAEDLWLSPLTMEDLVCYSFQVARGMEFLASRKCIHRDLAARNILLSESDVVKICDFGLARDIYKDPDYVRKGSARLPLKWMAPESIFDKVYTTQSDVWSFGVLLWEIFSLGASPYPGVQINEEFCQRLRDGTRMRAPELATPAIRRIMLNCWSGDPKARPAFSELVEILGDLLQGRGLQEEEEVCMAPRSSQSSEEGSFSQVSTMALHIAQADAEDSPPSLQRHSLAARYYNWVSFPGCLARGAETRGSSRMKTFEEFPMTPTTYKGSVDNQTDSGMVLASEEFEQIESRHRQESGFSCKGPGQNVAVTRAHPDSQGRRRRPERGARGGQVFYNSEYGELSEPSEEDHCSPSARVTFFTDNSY
For series [1] the following is noted: pH 2.
Description: After sonication for 10 min, fix them on a shaker and shaking for 8 h at room temperature. After shaking, sonicate for 10 min and centrifuge for 15 min at 13,000 rpm. Pipette 0.1 mL of supernatant into a new tube, shake and rinse it with 5 mL, and discard the liquid. Transfer 0.5 mL of the supernatant again to a new tube, centrifuge it for 15 min at 13,000 rpm, then collect the supernatant (if necessary, dilute with water) and analyze it by LC-MS.
The sample concentrations at 3-5 points are subjected to fitting and reticle for quantification.
Series [2] can be described thus: Compound distribution in plasma and ocular tissues after single ocular dose in Dutch belted rabbits. Type of series: in vivo. Conditions: eye drops 1 mg/mL (0.05 mg/eye), 0.5 h, 4 h or 8 h post-dose. The text has this: Age-related macular degeneration and diabetic retinopathy are associated with neovascularization in the posterior eye segment Due to the corneal and conjunctival barrier, one of the main problems with topical eye drops used to treat the posterior eye segment disorders is the low-efficiency delivery of the drug to the posterior eye segment. Therefore, it is important to measure the distribution of the compound in an ophthalmic formulation in several major ocular tissues. […] Dutch belted rabbits were used in this experiment. […]
In this experiment, male Dutch belted rabbits weighed 1.5-2.5 kg were purchased from Pizhou Dongfang Breeding Co., Ltd. Any operation on the laboratory animals in this experiment was in compliance with the relevant SOP requirements of the experimental operation of 3D BioOptima, Suzhou, China, and had been approved by the Institutional Animal Care and Use Committee (IACUC) of 3D BioOptima. […] The prepared dose formulations were freshly prepared on the day of administration, samples were retained and the actual concentration of the dose formulation was determined.
On the day of the experiment, animals were administrated at 1 mg/mL (0.05 mg/eye, 50 μL/eye). […] The concentration of each analyte in the rabbit ocular tissues and plasma obtained in this experiment was determined by LC-MS/MS. […]

For series [3] the following is noted: statement in the summary; cited from earlier work.

Values after ≈ are worked out from the molar mass of the structure shown. Like-named read-outs stand apart in the source and are kept apart here. Some results are limits rather than exact numbers.

The IC50 is the concentration that inhibits the measured activity by half.

Chain of KDR (VEGFR2) (P35968 790-1356): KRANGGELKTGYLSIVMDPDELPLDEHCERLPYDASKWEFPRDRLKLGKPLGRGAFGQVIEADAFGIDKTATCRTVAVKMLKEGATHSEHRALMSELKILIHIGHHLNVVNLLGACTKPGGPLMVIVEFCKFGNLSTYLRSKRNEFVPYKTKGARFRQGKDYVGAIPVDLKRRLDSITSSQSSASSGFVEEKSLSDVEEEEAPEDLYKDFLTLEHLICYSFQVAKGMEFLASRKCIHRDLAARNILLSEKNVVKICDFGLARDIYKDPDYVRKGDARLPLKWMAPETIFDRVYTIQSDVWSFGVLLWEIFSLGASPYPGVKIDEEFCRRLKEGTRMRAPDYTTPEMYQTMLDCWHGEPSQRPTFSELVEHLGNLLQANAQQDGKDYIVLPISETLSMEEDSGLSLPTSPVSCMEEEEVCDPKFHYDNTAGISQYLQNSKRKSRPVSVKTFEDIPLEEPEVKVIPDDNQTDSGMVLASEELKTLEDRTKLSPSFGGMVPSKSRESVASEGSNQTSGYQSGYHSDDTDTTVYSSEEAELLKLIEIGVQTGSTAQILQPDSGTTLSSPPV
Chain of FLT1 (VEGFR1) (P17948 27-1338): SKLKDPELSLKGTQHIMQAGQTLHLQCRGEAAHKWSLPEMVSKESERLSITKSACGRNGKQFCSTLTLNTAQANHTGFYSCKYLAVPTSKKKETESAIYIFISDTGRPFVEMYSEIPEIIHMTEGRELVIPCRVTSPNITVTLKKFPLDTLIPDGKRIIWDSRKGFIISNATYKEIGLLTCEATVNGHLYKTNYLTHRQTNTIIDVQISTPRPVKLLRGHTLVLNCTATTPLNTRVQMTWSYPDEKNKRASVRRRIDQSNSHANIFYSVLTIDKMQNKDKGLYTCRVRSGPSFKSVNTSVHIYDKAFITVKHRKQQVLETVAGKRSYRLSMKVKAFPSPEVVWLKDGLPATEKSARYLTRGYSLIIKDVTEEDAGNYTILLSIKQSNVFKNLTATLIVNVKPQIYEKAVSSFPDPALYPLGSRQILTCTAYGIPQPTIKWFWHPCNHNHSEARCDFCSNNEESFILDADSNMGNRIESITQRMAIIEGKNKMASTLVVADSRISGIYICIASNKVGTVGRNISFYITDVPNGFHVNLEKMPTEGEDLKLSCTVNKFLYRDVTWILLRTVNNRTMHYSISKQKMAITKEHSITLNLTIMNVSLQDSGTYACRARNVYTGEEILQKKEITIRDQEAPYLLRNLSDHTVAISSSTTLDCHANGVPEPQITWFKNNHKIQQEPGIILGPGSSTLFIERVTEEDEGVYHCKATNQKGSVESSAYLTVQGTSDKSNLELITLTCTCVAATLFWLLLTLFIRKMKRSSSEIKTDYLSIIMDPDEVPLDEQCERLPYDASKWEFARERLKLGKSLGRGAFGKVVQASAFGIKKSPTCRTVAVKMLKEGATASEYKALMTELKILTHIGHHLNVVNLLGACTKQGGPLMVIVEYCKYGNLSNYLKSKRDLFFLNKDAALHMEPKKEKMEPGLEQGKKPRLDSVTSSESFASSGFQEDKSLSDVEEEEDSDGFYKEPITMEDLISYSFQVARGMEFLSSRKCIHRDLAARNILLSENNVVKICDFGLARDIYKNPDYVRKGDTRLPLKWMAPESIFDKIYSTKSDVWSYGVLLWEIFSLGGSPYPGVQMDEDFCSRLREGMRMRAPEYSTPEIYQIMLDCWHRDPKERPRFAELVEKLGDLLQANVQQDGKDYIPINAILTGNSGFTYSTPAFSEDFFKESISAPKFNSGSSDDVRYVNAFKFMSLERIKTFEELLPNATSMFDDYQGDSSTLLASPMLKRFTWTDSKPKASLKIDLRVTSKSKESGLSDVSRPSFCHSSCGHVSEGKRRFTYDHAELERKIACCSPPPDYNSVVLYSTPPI

In the case of `CNC(=O)c1ccccc1Sc1ccc2c(/C=C/c3ccccn3)ncn2c1` [Compound I-26, N-methyl-2-({1-[(E)-2-(pyridin-2-yl)vinyl]imidazo[1,5-a]pyridin-6-yl}thio)benzamide], the 50% inhibitory concentration (IC50) on KDR (VEGFR2) is above 100 nM; at EGFR, above 60000 nM; on FLT1 (VEGFR1) it was above 100 nM; at FLT4 (VEGFR3) it was above 100 nM. Further, in series [1], the “solubility” value came out at 142.0 µg/mL (≈ 367 µM).
For the compound `CNC(=O)c1ccccc1Sc1ccc2c(/C=C/c3ccccn3)n[nH]c2c1` [Axitinib], the “drug concentration in retina” value in series [2] is on record as “below the lower limit of quantitation”; in series [2] (listed as axitinib) it was “below BLOQ”. Also, the solubility in series [3] was below 2 micrograms/milliliter.
